Publication PMC8032624, “Prediction of dose-dependent in vivo acetylcholinesterase inhibition by profenofos in rats and humans using physiologically based kinetic (PBK) modeling-facilitated reverse dosimetry” (Archives of Toxicology, 2021)

Target: AChE (Homo sapiens, UniProt P22303)
Assay: AChE inhibition by BCP
Type: biochemical

AChE, sequence (P22303 32-614): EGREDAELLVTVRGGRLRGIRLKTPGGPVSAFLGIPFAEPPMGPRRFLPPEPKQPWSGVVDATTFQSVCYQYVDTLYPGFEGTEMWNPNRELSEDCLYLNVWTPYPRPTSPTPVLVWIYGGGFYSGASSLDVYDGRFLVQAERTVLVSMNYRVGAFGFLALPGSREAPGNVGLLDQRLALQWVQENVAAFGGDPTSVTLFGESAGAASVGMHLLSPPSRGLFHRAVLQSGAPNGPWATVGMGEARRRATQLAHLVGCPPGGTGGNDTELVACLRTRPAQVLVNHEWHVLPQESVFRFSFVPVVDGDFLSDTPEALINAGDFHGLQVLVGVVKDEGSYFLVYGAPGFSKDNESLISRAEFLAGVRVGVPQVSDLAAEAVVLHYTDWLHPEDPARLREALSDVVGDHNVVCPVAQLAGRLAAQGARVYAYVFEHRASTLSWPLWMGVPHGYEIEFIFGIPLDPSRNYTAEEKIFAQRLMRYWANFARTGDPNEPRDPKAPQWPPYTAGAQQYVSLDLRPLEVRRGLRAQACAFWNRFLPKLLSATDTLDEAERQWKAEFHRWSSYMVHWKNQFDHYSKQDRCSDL

## Oc1ccc(Br)cc1Cl [BCP, 4-bromo-2-chlorophenol]
  AChE inhibition: not inhibit AChE
